Experimental data as given in US8987250B2 (Gilead Sciences, Inc., priority 2012, dated 2015).
Like-named read-outs stand apart in the source and are kept apart here.

Tested on: HIV-IIIb
Experiment: Test A: Antiviral Assay in MT4 Cells
Format: cell-based
In short: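 Read-out: CellTiter-Glo chemiluminescence after 5-day incubation at 37 °C. Compounds tested as 3-fold serial dilutions (10 concentrations, quadruplicate) in RPMI 1640 with 10% FBS, on MT-4 cells pre-infected at 37 °C with HIV-IIIb at 0.004 m.o.i.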

[1] = Human immunodeficiency virus 1, IIIB, MT4, 120 h, Table 2, MT-4 cells infected with HIV-IIIb, 5 days of incubation, CellTiter-Glo, read-out: EC50
[2] = Human immunodeficiency virus 1, IIIB, MT4, 120 h

Compound | EC50 [1] [µM] | other results
Cc1cc2nc(-c3ccnc(N4CCNCC4)n3)sc2c(-c2ccc(Cl)cc2)c1[C@H](OC(C)(C)C)C(=O)O [Compound 476, (S)-2-tert-butoxy-2-(7-(4-chlorophenyl)-5-methyl-2-(2-(piperazin-1-yl)pyrimidin-4-yl)benzo[d]thiazol-6-yl)acetic acid] | 0.128 | –
Cc1cc2nc(-c3ccnc(N4CCCN(C)CC4)n3)sc2c(-c2ccc(Cl)cc2)c1[C@H](OC(C)(C)C)C(=O)O [Compound 477, (S)-2-tert-butoxy-2-(7-(4-chlorophenyl)-5-methyl-2-(2-(4-methyl-1,4-diazepan-1-yl)pyrimidin-4-yl)benzo[d]thiazol-6-yl)acetic acid] | 0.014 | –
Cc1cc2nc(-c3ccnc(N4CC[C@H](N(C)C)C4)n3)sc2c(-c2ccc(Cl)cc2)c1[C@H](OC(C)(C)C)C(=O)O [Compound 478, (S)-2-tert-butoxy-2-(7-(4-chlorophenyl)-2-(2-((S)-3-(dimethylamino)pyrrolidin-1-yl)pyrimidin-4-yl)-5-methylbenzo[d]thiazol-6-yl)acetic acid] | 0.004 | –
Cc1cc2nc(-c3ccnc(N4CC[C@@H](N(C)C)C4)n3)sc2c(-c2ccc(Cl)cc2)c1[C@H](OC(C)(C)C)C(=O)O [Compound 479, (S)-2-tert-butoxy-2-(7-(4-chlorophenyl)-2-(2-((R)-3-(dimethylamino)pyrrolidin-1-yl)pyrimidin-4-yl)-5-methylbenzo[d]thiazol-6-yl)acetic acid] | 0.004 | –
Cc1cc2nc(-c3cncc(N4CCN(C(C)C)CC4)n3)sc2c(-c2ccc(Cl)cc2)c1[C@H](OC(C)(C)C)C(=O)O [Compound 480, (S)-2-tert-butoxy-2-(7-(4-chlorophenyl)-2-(6-(4-isopropylpiperazin-1-yl)pyrazin-2-yl)-5-methylbenzo[d]thiazol-6-yl)acetic acid] | – | EC50 [2]: 0.002 µM
Cc1cc2nc(-c3cncc(N4CCN(C(C)C)CC4)c3)sc2c(-c2ccc(Cl)cc2)c1[C@H](OC(C)(C)C)C(=O)O [Compound 481, (S)-2-tert-butoxy-2-(7-(4-chlorophenyl)-2-(5-(4-isopropylpiperazin-1-yl)pyridin-3-yl)-5-methylbenzo[d]thiazol-6-yl)acetic acid] | 0.017 | –
Cc1cc2nc(-c3cncc(N4CCN(C5COC5)CC4)c3)sc2c(-c2ccc(Cl)cc2)c1[C@H](OC(C)(C)C)C(=O)O [Compound 482, (S)-2-tert-butoxy-2-(7-(4-chlorophenyl)-5-methyl-2-(5-(4-(oxetan-3-yl)piperazin-1-yl)pyridin-3-yl)benzo[d]thiazol-6-yl)acetic acid] | 0.014 | –
Cc1cc2nc(-c3cccc(N4CCN(C(C)C)CC4)c3)sc2c(-c2ccc(Cl)cc2)c1[C@H](OC(C)(C)C)C(=O)O [Compound 483, (S)-2-tert-butoxy-2-(7-(4-chlorophenyl)-2-(3-(4-isopropylpiperazin-1-yl)phenyl)-5-methylbenzo[d]thiazol-6-yl)acetic acid] | 0.037 | –
Cc1cc2nc(-c3csc(N4CCN(C(C)C)CC4)n3)sc2c(-c2ccc(Cl)cc2)c1[C@H](OC(C)(C)C)C(=O)O [Compound 484, (S)-2-tert-butoxy-2-(7-(4-chlorophenyl)-2-(2-(4-isopropylpiperazin-1-yl)thiazol-4-yl)-5-methylbenzo[d]thiazol-6-yl)acetic acid] | 0.009 | –
Cc1cc2nc(-c3cnc(N4CCN(C(C)C)CC4)s3)sc2c(-c2ccc(Cl)cc2)c1[C@H](OC(C)(C)C)C(=O)O [Compound 485, (S)-2-tert-butoxy-2-(7-(4-chlorophenyl)-2-(2-(4-isopropylpiperazin-1-yl)thiazol-5-yl)-5-methylbenzo[d]thiazol-6-yl)acetic acid] | 0.015 | –
Cc1cc2nc(-c3ncc(N4CCN(C(C)C)CC4)s3)sc2c(-c2ccc(Cl)cc2)c1[C@H](OC(C)(C)C)C(=O)O [Compound 486, (S)-2-tert-butoxy-2-(7-(4-chlorophenyl)-2-(5-(4-isopropylpiperazin-1-yl)thiazol-2-yl)-5-methylbenzo[d]thiazol-6-yl)acetic acid] | 0.031 | –
Cc1cc2nc(-c3ncc4c(n3)c(C)nn4C)sc2c(-c2ccc(Cl)cc2)c1[C@H](OC(C)(C)C)C(=O)O [Compound 487, (S)-2-tert-butoxy-2-(7-(4-chlorophenyl)-2-(1,3-dimethyl-1H-pyrazolo[4,3-d]pyrimidin-5-yl)-5-methylbenzo[d]thiazol-6-yl)acetic acid] | 0.012 | –
Cc1cc2nc(-c3ccnc(-c4ncc5c(n4)c(C)nn5C)c3)sc2c(-c2ccc(Cl)cc2)c1[C@H](OC(C)(C)C)C(=O)O [Compound 488, (S)-2-tert-butoxy-2-(7-(4-chlorophenyl)-2-(2-(1,3-dimethyl-1H-pyrazolo[4,3-d]pyrimidin-5-yl)pyridin-4-yl)-5-methylbenzo[d]thiazol-6-yl)acetic acid] | – | EC50 [2]: 0.011 µM
Cc1cc2nc(-c3ccnc(-c4ccc5nc(N)ccc5c4)n3)sc2c(-c2ccc(Cl)cc2)c1[C@H](OC(C)(C)C)C(=O)O [Compound 489, (S)-2-(2-(2-(2-aminoquinolin-6-yl)pyrimidin-4-yl)-7-(4-chlorophenyl)-5-methylbenzo[d]thiazol-6-yl)-2-tert-butoxyacetic acid] | 0.02 | –
Cc1cc2nc(-c3cnc(C)c(-c4ccc5c(cnn5C)n4)c3)sc2c(-c2ccc(Cl)cc2)c1[C@H](OC(C)(C)C)C(=O)O [Compound 490, (S)-2-tert-butoxy-2-(7-(4-chlorophenyl)-5-methyl-2-(6-methyl-5-(1-methyl-1H-pyrazolo[4,3-b]pyridin-5-yl)pyridin-3-yl)benzo[d]thiazol-6-yl)acetic acid] | – | EC50 [2]: 0.003 µM
Cc1cc2nc(N3CCN(C)[C@@H](c4ccc5c(cnn5C)c4)C3)sc2c(-c2ccc(Cl)cc2)c1[C@H](OC(C)(C)C)C(=O)O [Compound 491, (S)-2-tert-butoxy-2-(7-(4-chlorophenyl)-5-methyl-2-((S)-4-methyl-3-(1-methyl-1H-indazol-5-yl)piperazin-1-yl)benzo[d]thiazol-6-yl)acetic acid] | 0.051 | –
Cc1cc2nc(N3CCN(C)[C@H](c4ccc5c(cnn5C)c4)C3)sc2c(-c2ccc(Cl)cc2)c1[C@H](OC(C)(C)C)C(=O)O [Compound 492, (S)-2-tert-butoxy-2-(7-(4-chlorophenyl)-5-methyl-2-((R)-4-methyl-3-(1-methyl-1H-indazol-5-yl)piperazin-1-yl)benzo[d]thiazol-6-yl)acetic acid] | 0.003 | –
Cc1cc2nc(-c3ccc4c(c3)c(N3CCN(C(C)C(F)(F)F)CC3)nn4C)sc2c(-c2ccc(Cl)cc2)c1[C@H](OC(C)(C)C)C(=O)O (stereo partly drawn) [Compound 493, (2S)-2-tert-butoxy-2-(7-(4-chlorophenyl)-5-methyl-2-(1-methyl-3-(4-((2R/2S)-1,1,1-trifluoropropan-2-yl)piperazin-1-yl)-1H-indazol-5-yl)benzo[d]thiazol-6-yl)acetic acid] | – | EC50 (Table 2, MT-4 cells infected with HIV-IIIb, 5 days of incubation, CellTiter-Glo, read-out: EC50): 0.051 µM
Cc1cc2nc(-c3ccc4c(n3)c(N3CCN(C)CC3)nn4C)sc2c(-c2ccc(Cl)cc2)c1[C@H](OC(C)(C)C)C(=O)O [Compound 495, (S)-2-tert-butoxy-2-(7-(4-chlorophenyl)-5-methyl-2-(1-methyl-3-(4-methylpiperazin-1-yl)-1H-pyrazolo[4,3-b]pyridin-5-yl)benzo[d]thiazol-6-yl)acetic acid] | 0.004 | –
